Laboratory results from patent publication US20140336193A1, “POTENT NON-UREA INHIBITORS OF SOLUBLE EPOXIDE HYDROLASE” (priority 2012, published 2014).
Blank lines part the entries; values can stand above or below the compound they belong to.

How the values were obtained:
[1] = molecular target: T1, Human sEH (Homo sapiens, UniProt P34913); assay: Fluorescent assay with CMNPC substrate (Example 2); assay type: biochemical
T1 sequence (P34913 1-555): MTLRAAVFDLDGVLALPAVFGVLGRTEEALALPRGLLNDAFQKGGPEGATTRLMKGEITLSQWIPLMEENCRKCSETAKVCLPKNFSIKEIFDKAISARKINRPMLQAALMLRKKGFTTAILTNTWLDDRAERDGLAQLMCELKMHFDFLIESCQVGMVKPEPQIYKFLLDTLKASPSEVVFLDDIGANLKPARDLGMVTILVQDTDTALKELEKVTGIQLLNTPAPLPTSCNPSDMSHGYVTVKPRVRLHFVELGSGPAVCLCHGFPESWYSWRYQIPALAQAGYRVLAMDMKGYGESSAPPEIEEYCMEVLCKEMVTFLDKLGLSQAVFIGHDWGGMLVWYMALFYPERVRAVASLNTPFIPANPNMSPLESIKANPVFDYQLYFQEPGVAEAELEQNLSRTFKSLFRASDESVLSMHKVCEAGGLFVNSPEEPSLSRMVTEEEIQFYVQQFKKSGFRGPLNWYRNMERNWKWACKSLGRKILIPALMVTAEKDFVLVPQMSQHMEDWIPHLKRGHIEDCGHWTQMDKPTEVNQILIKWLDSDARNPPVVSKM
Method: A fluorescent assay was employed for high throughput screening (HTS) of inhibitors of sEH. Cyano(2-methoxynaphthalen-6-yl)methyl trans-(3-phenyloxyran-2-yl)methyl carbonate (CMNPC) was used as the fluorescent substrate. Human sEH (1 nM) was incubated with a compound of Formula I for 5 min in pH 7.0 Bis-Tris/HCl buffer (25 mM) containing 0.1 mg/mL of BSA at 30° C. prior to substrate introduction ([S]=5 μM). […] IC50 values are the average of the three replicates with at least two datum points above and at least two below the IC50.

[2] = In vitro human liver microsomal metabolic stability (Example 4); assay type: in vitro ADME; conditions: for CLint scaled / half-life: pooled human liver microsomes; for CLint scaled: apparent intrinsic clearance, human liver microsomes; for half-life: half life in human liver microsomes, averages of duplicate determination, read-out: hLM t1/2
Method: The stability of sEH inhibitors in a human liver microsomal assay was determined as a predictor of in vivo oxidative metabolism. Microsomal stability was assessed in pooled human liver microsomes (Celsis, Edison, N.J.). All reactions were carried out for 90 min at 37° C. in an NADPH-generating system consisting of glucose 6-phosphate, glucose 6-phosphate dehydrogenase, and NADP^+ (Sigma, St. Louis, Mo.). Positive control incubations proceeded with 7-ethoxycoumarin as the substrate. Reactions were terminated by adding methanol. The mixtures were centrifuged and the supernatants were evaporated. The residues were reconstituted in mobile phase (85% ACN; 15% H2O) and subjected to LC/MS analysis.

[3] = molecular target: T1, Human sEH; assay: biochemical; conditions: Table 1

SMILES: Cc1ccc(S(=O)(=O)N2CCC(C(=O)Nc3ccccc3)CC2)c(C)c1 [Compound 7-12]
- IC50 [1]: 23 nM

SMILES: Cc1ccc(S(=O)(=O)N2CCC(C(=O)Nc3ccccc3Cl)CC2)c(C)c1 [Compound 7-14]
- IC50 [1]: 250 nM

SMILES: Cc1ccc(S(=O)(=O)N2CCC(C(=O)Nc3ccc(F)cc3)CC2)c(C)c1 [Compound 7-32]
- IC50 [1]: 25 nM

SMILES: Cc1ccc(S(=O)(=O)N2CCC(C(=O)Nc3ccc(OC(F)(F)F)cc3)CC2)c(C)c1 [Compound 7-23]
- CLint scaled [2]: 28 mL/min/kg
- half-life [2]: 46 min
- IC50 [1]: 5.2 nM

SMILES: Cc1ccc(S(=O)(=O)N2CCC(C(=O)N[C@@H]3C[C@H]3c3ccccc3)CC2)c(C)c1 [Compound 7-3]
- CLint scaled [2]: 90 mL/min/kg
- half-life [2]: 14 min
- IC50 [1]: 5.2 nM

SMILES: Cc1ccc(S(=O)(=O)N2CCC(C(=O)Nc3ccc(S(=O)(=O)C(F)(F)F)cc3)CC2)c(C)c1 [Compound 7-30]
- IC50 [1]: 8.7 nM

SMILES: Cc1ccc(S(=O)(=O)N2CCC(C(=O)Nc3ccccc3O)CC2)c(C)c1 [Compound 7-17]
- IC50 [1]: 2200 nM

SMILES: Cc1ccc(S(=O)(=O)N2CCC(C(=O)Nc3ccc(N4CCCCC4)cc3)CC2)c(C)c1 [Compound 7-25]
- in vitro metabolic stability in human liver microsomes, in words [2]: intermediate metabolic profiles
- IC50 [1]: 29 nM

SMILES: Cc1ccc(S(=O)(=O)N2CCC(C(=O)NCC3CCCCC3)CC2)c(C)c1 [Compound 7-9]
- CLint scaled [2]: 520 mL/min/kg
- half-life [2]: 2.4 min

SMILES: Cc1ccc(S(=O)(=O)N2CCC(C(=O)NC3CCCc4ccccc43)CC2)c(C)c1 (centres unmarked) [Compound 7-8]
- IC50 [1]: 0.6 nM

SMILES: Cc1ccc(S(=O)(=O)N2CCC(C(=O)NC3CCCCC3)CC2)c(C)c1 [Compound 7-6]
- CLint scaled [2]: 90 mL/min/kg
- half-life [2]: 14 min

SMILES: Cc1ccc(S(=O)(=O)N2CCC(C(=O)Nc3cccc(C(F)(F)F)c3)CC2)c(C)c1 [Compound 7-31]
- IC50 [1]: 20 nM

SMILES: Cc1ccc(S(=O)(=O)N2CCC(C(=O)NC34CC5CC(CC(C5)C3)C4)CC2)c(C)c1 [Compound 7-11]
- CLint scaled [2]: 340 mL/min/kg
- half-life [2]: 3.7 min
- IC50 [1]: 8.5 nM

SMILES: COC(=O)c1ccc(NC(=O)C2CCN(S(=O)(=O)c3ccc(C)cc3C)CC2)cc1 [Compound 7-21]
- IC50 [1]: 13 nM

SMILES: Cc1ccc(S(=O)(=O)N2CCC(C(=O)Nc3ccc(Oc4ccccc4)cc3)CC2)c(C)c1 [Compound 7-20]
- CLint scaled [2]: 120 mL/min/kg
- half-life [2]: 11 min
- IC50 [1]: 6 nM

SMILES: Cc1ccc(S(=O)(=O)N2CCC(C(=O)Nc3ccc([N+](=O)[O-])cc3)CC2)c(C)c1 [Compound 7-24]
- CLint scaled [2]: 7 mL/min/kg
- half-life [2]: 180 min
- IC50 [1]: 4.6 nM

SMILES: Cc1ccc(S(=O)(=O)N2CCC(C(=O)Nc3ccc(O)cc3)CC2)c(C)c1 [Compound 7-19]
- IC50 [1]: 55 nM

SMILES: Cc1ccc(S(=O)(=O)N2CCC(C(=O)Nc3ccc(N4CCOCC4)cc3)CC2)c(C)c1 [Compound 7-27]
- IC50 [1]: 41 nM

SMILES: Cc1ccc(S(=O)(=O)N2CCC(C(=O)Nc3ccc(C(F)(F)F)cc3)CC2)c(C)c1 [Compound 7-29]
- IC50 [1]: 6.9 nM

SMILES: Cc1ccc(S(=O)(=O)N2CCC(C(=O)Nc3ccc(C(C)C)cc3)CC2)c(C)c1 [Compound 7-28]
- IC50 [1]: 2.8 nM

SMILES: Cc1ccc(S(=O)(=O)N2CCC(C(=O)Nc3ccc(C(=O)O)cc3)CC2)c(C)c1 [Compound 7-22]
- IC50 [1]: 110 nM

SMILES: Cc1ccc(S(=O)(=O)N2CCC(C(=O)Nc3ccccc3Br)CC2)c(C)c1 [Compound 7-15]
- IC50 [1]: 30 nM

SMILES: Cc1ccc(S(=O)(=O)N2CCC(C(=O)Nc3ccc(N4CCCCC4)c(C(N)=O)c3)CC2)c(C)c1 [Compound 7-26]
- in vitro metabolic stability in human liver microsomes, in words [2]: intermediate metabolic profiles
- IC50 [1]: 102 nM

SMILES: Cc1ccc(S(=O)(=O)N2CCC(C(=O)Nc3ccccc3C)CC2)c(C)c1 [Compound 7-16]
- IC50 [1]: 640 nM

SMILES: Cc1ccc(S(=O)(=O)N2CCC(C(=O)Nc3ccccc3F)CC2)c(C)c1 [Compound 7-13]
- IC50 [1]: 20 nM

The remaining lines, values ahead:

- CLint scaled [2]: 35 mL/min/kg
- half-life [2]: 36 min
- IC50 [1]: 0.6 nM
SMILES: Cc1ccc(S(=O)(=O)N2CCC(C(=O)Nc3ccc4c(c3)OCO4)CC2)c(C)c1 [Compound 7-45]

- in vitro metabolic stability in human liver microsomes, in words [2]: excellent in vitro metabolic stability
- CLint scaled [2]: 5.6 mL/min/kg
- half-life [2]: 220 min
- IC50 [1]: 23 nM
SMILES: Cc1ccc(S(=O)(=O)N2CCC(C(=O)Nc3ccc4cc(C(=O)O)ccc4c3)CC2)c(C)c1 [Compound 7-44]

- IC50 [1]: 2.3 nM
SMILES: COC(=O)c1ccc2cc(NC(=O)C3CCN(S(=O)(=O)c4ccc(C)cc4C)CC3)ccc2c1 [Compound 7-43]

- IC50 [3]: 5.2 nM
SMILES: Cc1ccc(S(=O)(=O)N2CCC(C(=O)NC3C[C@@H]3c3ccccc3)CC2)c(C)c1 (some centres unmarked) [Compound 2536]

- IC50 [1]: 17 nM
SMILES: Cc1ccc(S(=O)(=O)N2CCC(C(=O)Nc3ccc(Br)cc3)CC2)c(C)c1 [Compound 7-34]

- IC50 [1]: 20 nM
SMILES: Cc1ccc(S(=O)(=O)N2CCC(C(=O)Nc3ccc(Cl)cc3)CC2)c(C)c1 [Compound 7-33]

- IC50 [1]: 45 nM
SMILES: Cc1ccc(S(=O)(=O)N2CCC(C(=O)Nc3cnc4ccccc4c3)CC2)c(C)c1 [Compound 7-40]

- CLint scaled [2]: 35 mL/min/kg
- half-life [2]: 36 min
- IC50 [1]: 1.6 nM
SMILES: Cc1ccc(S(=O)(=O)N2CCC(C(=O)Nc3ccc4ccccc4c3)CC2)c(C)c1 [Compound 7-38]

- IC50 [1]: 12 nM
SMILES: Cc1ccc(S(=O)(=O)N2CCC(C(=O)Nc3cc(Cl)cc(Cl)c3)CC2)c(C)c1 [Compound 7-35]

- IC50 [1]: 43 nM
SMILES: Cc1ccc(S(=O)(=O)N2CCC(C(=O)Nc3ccc(Cl)c(C(F)(F)F)c3)CC2)c(C)c1 [Compound 7-36]

- IC50 [3]: 8.5 nM
SMILES: Cc1ccc(S(=O)(=O)N2CCC(C(=O)NC34CC5CC(CC(C5)C3)C4)CC2)c(C)c1 [Compound 2535]

- IC50 [1]: 78 nM
SMILES: Cc1ccc(S(=O)(=O)N2CCC(C(=O)Nc3ccc4ncccc4c3)CC2)c(C)c1 [Compound 7-41]

- IC50 [3]: 23.2 nM
SMILES: Cc1ccc(S(=O)(=O)N2CCC(C(=O)Nc3ccc4cc(C(=O)O)ccc4c3)CC2)c(C)c1 [Compound 2590]

- CLint scaled [2]: 50 mL/min/kg
- half-life [2]: 25 min
- IC50 [1]: 6.7 nM
SMILES: Cc1ccc(S(=O)(=O)N2CCC(C(=O)Nc3ccc(Cl)c(Cl)c3)CC2)c(C)c1 [Compound 7-37]
